Data as given in publication PMC11013038, “Design, Synthesis, and Evaluation of B-(Trifluoromethyl)phenyl Phosphine–Borane Derivatives as Novel Progesterone Receptor Antagonists” (Molecules, 2024).

Assays:
[1] = LogP (1-octanol/water partition coefficient) determined using HPLC; format: physicochemical; settings: HPLC (OECD guideline), C18 column, methanol–water 75% (v/v), 40 °C, mean of triplicate
Procedure: Hydrophobicity is a key determinant of the activity and pharmacokinetics of biologically active compounds, and the octanol–water partition coefficient (P) and logarithm value (LogP) are widely used hydrophobicity parameters. The LogP values of the synthesized compounds were determined using HPLC [45, 46]. Table 1 summarizes the experimentally determined LogP values and calculated values. […] From the viewpoint of the phosphine structure, an increase in the number of carbon atoms increased hydrophobicity in a predictable manner.
The 1-octanol/water partition coefficient P was determined using HPLC based on the OECD Guideline for Testing Chemicals. A COSMOSIL Packed Column 5C18-MS-II (5 μm, 150 mm × 4.6 mm id, Nacalai Tesque, Inc., Kyoto, Japan) was fitted on an HPLC instrument (Multiwavelength Detector, MD-2010 Plus. JASCO, Tokyo, Japan) equipped with a pump (PU-2080, JASCO) and an oven (SSC-2120, Senshu Scientific Co., Ltd., Tokyo, Japan). The injection volume was 20 µL; the mobile phase was methanol–water 75% (v/v); and the flow rate was 1.0 mL/min in all cases. Compounds were detected by measuring the UV absorption at 240 nm. The temperature of the column was kept at 40.0 (± 0.1) °C during the measurement. The measurement was performed in triplicate, and the mean value was calculated. The dead time t0 was measured with thiourea as the unretained compound, and the capacity factor k was calculated using the equation logk = log (tr − t0/t0), where tr represents the retention time of the compound. A calibration graph was determined experimentally using reference compounds (4-methylphenol, 4-chlorophenol, 4-phenylphenol, diphenylether, fluoranthene, and dichlorodiphenyltrichloroethane) with known logP values. The LogP values of phosphine–boranes were calculated based on a calibration graph (LogP = 2.6269 logkw + 3.059, R^2 = 0.9915).

[2] = molecular target: T1, progesterone receptor (PR) (Homo sapiens, UniProt P06401); experiment: T47D alkaline phosphatase assay, PR antagonistic activity in the presence of 1 nM P4; format: cell-based; settings: T47D cells, 1.0 nM P4, 48 h; mean ± SD from three independent experiments
T1 construct: alkaline phosphatase assay with the T47D human breast cancer cell line; endogenous in cells; host or cells: T47D
T1 sequence (P06401 1-933): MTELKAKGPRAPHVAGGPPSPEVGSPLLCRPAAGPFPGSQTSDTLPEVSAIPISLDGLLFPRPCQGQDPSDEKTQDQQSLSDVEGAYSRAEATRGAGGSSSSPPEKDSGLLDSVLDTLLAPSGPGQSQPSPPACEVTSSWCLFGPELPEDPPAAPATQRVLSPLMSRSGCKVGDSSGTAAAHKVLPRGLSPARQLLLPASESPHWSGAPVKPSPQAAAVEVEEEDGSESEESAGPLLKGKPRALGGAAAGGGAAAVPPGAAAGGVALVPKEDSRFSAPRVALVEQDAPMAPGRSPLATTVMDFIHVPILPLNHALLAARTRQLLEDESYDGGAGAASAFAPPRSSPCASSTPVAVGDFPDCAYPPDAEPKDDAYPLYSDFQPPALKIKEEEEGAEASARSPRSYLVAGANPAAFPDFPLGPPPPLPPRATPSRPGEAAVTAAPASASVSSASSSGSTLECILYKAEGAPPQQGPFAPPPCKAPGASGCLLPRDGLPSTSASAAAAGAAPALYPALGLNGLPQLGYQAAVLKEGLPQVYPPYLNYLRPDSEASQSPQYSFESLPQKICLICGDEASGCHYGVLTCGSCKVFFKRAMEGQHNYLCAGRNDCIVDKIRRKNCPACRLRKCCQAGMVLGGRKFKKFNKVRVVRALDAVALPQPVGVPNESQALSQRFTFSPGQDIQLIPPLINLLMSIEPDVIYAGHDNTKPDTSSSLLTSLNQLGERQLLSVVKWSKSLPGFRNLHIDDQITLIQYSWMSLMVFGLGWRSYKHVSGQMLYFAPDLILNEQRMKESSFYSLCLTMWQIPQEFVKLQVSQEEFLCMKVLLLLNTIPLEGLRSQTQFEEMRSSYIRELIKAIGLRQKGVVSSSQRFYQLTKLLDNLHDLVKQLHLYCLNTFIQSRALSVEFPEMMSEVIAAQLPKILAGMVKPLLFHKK
Procedure: The PR agonistic and antagonistic activities of the synthesized phosphine–borane derivatives were evaluated using an alkaline phosphatase assay with the T47D human breast cancer cell line. […] The basal alkaline phosphatase activity was also not affected by the tested compounds alone. […] The PR antagonistic activities of the compounds were assessed in the presence of 1 nM of P4 (5). We also calculated the molecular volume of each compound to investigate the structure–activity relationship (SAR). Table 2 summarizes the PR antagonistic activity and calculated volumes of the synthesized compounds. […] We investigated the binding affinity of the compounds toward the PR ligand-binding domain (LBD) using a fluorescence polarization assay system. […] We also investigated the activity of compounds 28 and 34 toward the androgen receptor (AR) by means of cell-proliferation promoting/inhibitory activity toward androgen-dependent SC-3 cells. […].
T47D alkaline phosphatase assays were performed as previously described, with minor modifications. Briefly, the human breast cancer cell line T47D (HMS LINCS database Accession Numbers: 50541) was routinely cultivated in RPMI 1640 medium with 10% FBS at 37 °C in a 5% CO2 humidified incubator. The cells were plated in 96-well plates and incubated overnight in a 5% CO2 humidified incubator at 37 °C. The next day, the cells were treated with a fresh medium containing the test compound in the presence of 1 nM of progesterone and further incubated for 48 h. The medium was aspirated, and the cells were fixed with 100 μL of 1.8% formalin–PBS. The fixed cells were washed with PBS, and 100 μL of an assay buffer (1 mg/mL p-nitrophenol phosphate in diethanolamine water solution, pH 9.0) was added. The mixture was incubated at room temperature for 2 h under light-shielded conditions. The absorbance was measured at 405 nm using a DTX 880 Multimode Detector (Beckman Coulter, Brea, CA, USA). All data points were measured in triplicate, and IC50 values were calculated from three independent experiments.

With `CN(C)[P+]([BH2-]c1ccc(C(F)(F)F)cc1)(N(C)C)N(C)C` [Compound 39, B-4-(Trifluoromethyl)phenyl Tris(dimethylamino)phosphine–Borane] the chromatographic logP [1] was 5.64, the melting point was 41.1 to 41.6 °C and the IC50 [2] was 1400 ± 880 nM.
